Values of other authors, collected in paper PMC4364341, “NBD delivery improves the disease phenotype of the golden retriever model of Duchenne muscular dystrophy” (Skeletal Muscle, 2014).

System: GRMD dogs
Settings: previous GRMD prednisone trial; cited from earlier work
Excerpt: This functional benefit obtained by NBD in GRMD dogs was consistent with that obtained in the mdx murine model of DMD [13].

SMILES: C[C@]12C=CC(=O)C=C1CC[C@@H]1[C@@H]2C(=O)C[C@@]2(C)[C@H]1CC[C@]2(O)C(=O)CO [prednisone]
- Extension force in treated GRMD dogs: increased extension force
